Results as given in patent US20070249620A1, “Urea Derivative” (priority 2004, published 2007).

Key:
mouse DGAT1 = target: T1, mouse DGAT1 (Mus musculus, UniProt Q9Z2A7); assay: DGAT1 inhibitory effect test (microsome fraction, [14C]-oleoyl-CoA, triglyceride radioactivity by TLC); assay type: biochemical; conditions: 0.5 h; concentration of the test compound 0.1 μg/ml; mouse DGAT1 microsomes, 23° C., 30 minutes; read-out: Inhibitory ratio
T1 construct: made in house; host or cells: insect cells (High Five, Sf9, Sf21, etc.), baculovirus expression system (Invitrogen)
T1 sequence (Q9Z2A7 1-498): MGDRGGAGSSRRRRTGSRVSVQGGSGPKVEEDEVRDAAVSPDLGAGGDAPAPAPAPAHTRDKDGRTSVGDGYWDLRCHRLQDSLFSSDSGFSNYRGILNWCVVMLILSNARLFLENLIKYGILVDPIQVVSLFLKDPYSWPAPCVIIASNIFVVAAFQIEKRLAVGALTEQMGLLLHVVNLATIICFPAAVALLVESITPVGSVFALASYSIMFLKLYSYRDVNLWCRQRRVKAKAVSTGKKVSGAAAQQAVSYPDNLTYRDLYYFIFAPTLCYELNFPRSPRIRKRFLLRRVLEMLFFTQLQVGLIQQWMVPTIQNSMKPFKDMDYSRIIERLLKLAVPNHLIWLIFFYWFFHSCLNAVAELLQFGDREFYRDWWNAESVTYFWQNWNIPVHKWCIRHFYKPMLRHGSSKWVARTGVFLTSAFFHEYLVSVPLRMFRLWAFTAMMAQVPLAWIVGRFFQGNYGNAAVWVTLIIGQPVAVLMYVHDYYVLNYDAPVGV
Procedure, shortened: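 Baculovirus-expressed mouse DGAT1 insect-cell microsomes (10 μg) were incubated 30 min at 23 °C, pH 8.0, with 0.5 mM 1,2-dioleoyl-sn-glycerol, 30 μM [14C]-oleoyl-CoA and 0.5% Triton X-100. [14C]-triglyceride was quantified after heptane extraction and TLC. Percent inhibition was taken against vehicle control, with 0-min background subtracted.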

CCOc1ccccc1NC(=O)Nc1ccc(N2CCN(C(=O)Nc3ccc(C)cc3Cl)CC2)nc1 [Example 146, 4-{5-[3-(2-ethoxy-phenyl)-ureido]-pyridin-2-yl}-piperazine-1-carboxylic acid (2-chloro-4-methyl-phenyl)-amide]
inhibition at 0.1 µg/mL (mouse DGAT1): ≥ 50% | melting point: 136 to 137 °C

COc1ccc(C)cc1NC(=O)Nc1ccc(N2CCN(C(=O)Nc3ccc(C)cc3Cl)CC2)nc1 [Example 147, 4-{5-[3-(2-methoxy-5-methyl-phenyl)-ureido]-pyridin-2-yl}-piperazine-1-carboxylic acid (2-chloro-4-methyl-phenyl)-amide]
inhibition at 0.1 µg/mL (mouse DGAT1): ≥ 50% | melting point: 214 to 215 °C

COc1ccc(F)cc1NC(=O)Nc1ccc(N2CCN(C(=O)Nc3c(C)cccc3Cl)CC2)nc1 [Example 148, 4-{5-[3-(5-fluoro-2-methoxy-phenyl)-ureido]-pyridin-2-yl}-piperazine-1-carboxylic acid (2-chloro-6-methyl-phenyl)-amide]
inhibition at 0.1 µg/mL (mouse DGAT1): ≥ 50% | melting point: 227 to 228 °C

COc1ccc(F)cc1NC(=O)Nc1ccc(N2CCN(C(=O)Nc3c(C)cccc3C)CC2)nc1 [Example 149, 4-{5-[3-(5-fluoro-2-methoxy-phenyl)-ureido]-pyridin-2-yl}-piperazine-1-carboxylic acid (2,6-dimethyl-phenyl)-amide]
inhibition at 0.1 µg/mL (mouse DGAT1): ≥ 50% | melting point: 226 to 228 °C

COc1ccc(F)cc1NC(=O)Nc1ccc(N2CCN(C(=O)Nc3c(Cl)cccc3Cl)CC2)nc1 [Example 151, 4-{5-[3-(5-fluoro-2-methoxy-phenyl)-ureido]-pyridin-2-yl}-piperazine-1-carboxylic acid (2,6-dichloro-phenyl)-amide]
inhibition at 0.1 µg/mL (mouse DGAT1): ≥ 50% | melting point: 228 °C

COc1ccc(C)cc1NC(=O)Nc1ccc(N2CCN(C(=O)Nc3c(F)cccc3F)CC2)nc1 [Example 152, 4-{5-[3-(2-methoxy-5-methyl-phenyl)-ureido]-pyridin-2-yl}-piperazine-1-carboxylic acid (2,6-difluoro-phenyl)-amide]
inhibition at 0.1 µg/mL (mouse DGAT1): ≥ 50% | melting point: 237 to 239 °C

COc1ccc(NC(=O)N2CCN(c3ccc(NC(=O)Nc4cc(F)ccc4OC)cn3)CC2)c(C)c1 [Example 153, 4-{5-[3-(5-fluoro-2-methoxy-phenyl)-ureido]-pyridin-2-yl}-piperazine-1-carboxylic acid (4-methoxy-2-methyl-phenyl)-amide]
inhibition at 0.1 µg/mL (mouse DGAT1): ≥ 50% | melting point: 212 to 214 °C

COc1ccc(F)cc1NC(=O)Nc1ccc(N2CCN(C(=O)Nc3ccc(C)cc3Cl)CC2)nc1 [Example 154, 4-{5-[3-(5-fluoro-2-methoxy-phenyl)-ureido]-pyridin-2-yl}-piperazine-1-carboxylic acid (2-chloro-4-methyl-phenyl)-amide]
inhibition at 0.1 µg/mL (mouse DGAT1): ≥ 50% | melting point: 217 to 218 °C

COc1ccc(C)cc1NC(=O)Nc1ccc(N2CCN(C(=O)Nc3ccc(F)cc3C(F)(F)F)CC2)nc1 [Example 155, 4-{5-[3-(2-methoxy-5-methyl-phenyl)-ureido]-pyridin-2-yl}-piperazine-1-carboxylic acid (4-fluoro-2-trifluoromethyl-phenyl)-amide]
inhibition at 0.1 µg/mL (mouse DGAT1): ≥ 50% | melting point: 186 to 187 °C

Cc1cccc(Cl)c1NC(=O)N1CCN(c2ccc(NC(=O)Nc3ccc(N(C)C)cc3)cc2)CC1 [Example 156, 4-{4-[3-(4-dimethylamino-phenyl)-ureido]-phenyl}-piperazine-1-carboxylic acid (2-chloro-6-methyl-phenyl)-amide]
inhibition at 0.1 µg/mL (mouse DGAT1): ≥ 50% | melting point: 214 to 217 °C

CCC(C)c1ccccc1NC(=O)Nc1ccc(N2CCN(C(=O)Nc3c(C)cccc3Cl)CC2)cc1 (centres unmarked) [Example 157, 4-{4-[3-(2-sec-butyl-phenyl)-ureido]-phenyl}-piperazine-1-carboxylic acid (2-chloro-6-methyl-phenyl)-amide]
inhibition at 0.1 µg/mL (mouse DGAT1): ≥ 50% | melting point: 232 to 234 °C

Cc1cccc(Cl)c1NC(=O)N1CCN(c2ccc(NC(=O)Nc3ccc(C(C)C)cc3)cc2)CC1 [Example 158, 4-{4-[3-(4-isopropyl-phenyl)-ureido]-phenyl}-piperazine-1-carboxylic acid (2-chloro-6-methyl-phenyl)-amide]
inhibition at 0.1 µg/mL (mouse DGAT1): ≥ 50% | melting point: 278 to 280 °C

CCOc1ccc(NC(=O)Nc2ccc(N3CCN(C(=O)Nc4c(C)cccc4Cl)CC3)cc2)cc1 [Example 159, 4-{4-[3-(4-ethoxy-phenyl)-ureido]-phenyl}-piperazine-1-carboxylic acid (2-chloro-6-methyl-phenyl)-amide]
inhibition at 0.1 µg/mL (mouse DGAT1): ≥ 50% | melting point: 229 to 230 °C

CCc1ccc(NC(=O)Nc2ccc(N3CCN(C(=O)Nc4c(C)cccc4Cl)CC3)cc2)cc1 [Example 160, 4-{4-[3-(4-ethyl-phenyl)-ureido]-phenyl}-piperazine-1-carboxylic acid (2-chloro-6-methyl-phenyl)-amide]
inhibition at 0.1 µg/mL (mouse DGAT1): ≥ 50% | melting point: 239 to 241 °C

CCC(C)c1ccc(NC(=O)Nc2ccc(N3CCN(C(=O)Nc4c(C)cccc4Cl)CC3)cc2)cc1 (centres unmarked) [Example 161, 4-{4-[3-(4-sec-butyl-phenyl)-ureido]-phenyl}-piperazine-1-carboxylic acid (2-chloro-6-methyl-phenyl)-amide]
inhibition at 0.1 µg/mL (mouse DGAT1): ≥ 50% | melting point: 259 to 261 °C

CCCCOc1ccc(NC(=O)Nc2ccc(N3CCN(C(=O)Nc4c(C)cccc4Cl)CC3)cc2)cc1 [Example 162, 4-{4-[3-(4-butoxy-phenyl)-ureido]-phenyl}-piperazine-1-carboxylic acid (2-chloro-6-methyl-phenyl)-amide]
inhibition at 0.1 µg/mL (mouse DGAT1): ≥ 50% | melting point: 218 to 219 °C

Cc1cccc(Cl)c1NC(=O)N1CCN(c2ccc(NC(=O)Nc3cc(C(F)(F)F)ccc3F)cc2)CC1 [Example 163, 4-{4-[3-(2-fluoro-5-trifluoromethyl-phenyl)-ureido]-phenyl}-piperazine-1-carboxylic acid (2-chloro-6-methyl-phenyl)-amide]
inhibition at 0.1 µg/mL (mouse DGAT1): ≥ 50% | melting point: 228 to 230 °C

Cc1cccc(Cl)c1NC(=O)N1CCN(c2ccc(NC(=O)Nc3cc(C(F)(F)F)ccc3Cl)cc2)CC1 [Example 164, 4-{4-[3-(2-chloro-5-trifluoromethyl-phenyl)-ureido]-phenyl}-piperazine-1-carboxylic acid (2-chloro-6-methyl-phenyl)-amide]
inhibition at 0.1 µg/mL (mouse DGAT1): ≥ 50% | melting point: 249 to 251 °C

Cc1ccc(Cl)c(NC(=O)Nc2ccc(N3CCN(C(=O)Nc4c(C)cccc4Cl)CC3)cc2)c1 [Example 165, 4-{4-[3-(2-chloro-5-methyl-phenyl)-ureido]-phenyl}-piperazine-1-carboxylic acid (2-chloro-6-methyl-phenyl)-amide]
inhibition at 0.1 µg/mL (mouse DGAT1): ≥ 50% | melting point: > 260 °C (dec.)

COc1ccc(C)cc1NC(=O)Nc1ccc(N2CCN(C(=O)Nc3ccc(N)cc3C(F)(F)F)CC2)cc1 [Example 166, 4-{4-[3-(2-methoxy-5-methyl-phenyl)-ureido]-phenyl}-piperazine-1-carboxylic acid (4-amino-2-trifluoromethyl-phenyl)-amide]
inhibition at 0.1 µg/mL (mouse DGAT1): ≥ 50% | melting point: 244 to 246 °C

COc1ccc(C)cc1NC(=O)Nc1ccc(N2CCN(C(=O)Nc3c(C)cccc3N)CC2)cc1 [Example 167, 4-{4-[3-(2-methoxy-5-methyl-phenyl)-ureido]-phenyl}-piperazine-1-carboxylic acid (2-amino-6-methyl-phenyl)-amide]
inhibition at 0.1 µg/mL (mouse DGAT1): ≥ 50% | melting point: 198 to 199 °C

COc1ccc(C)cc1NC(=O)Nc1ccc(N2CCN(C(=O)Nc3ccc(N)cc3Cl)CC2)cc1 [Example 168, 4-{4-[3-(2-methoxy-5-methyl-phenyl)-ureido]-phenyl}-piperazine-1-carboxylic acid (4-amino-2-chloro-phenyl)-amide]
inhibition at 0.1 µg/mL (mouse DGAT1): ≥ 50% | melting point: 226 to 228 °C

COc1ccc(C)cc1NC(=O)Nc1ccc(N2CCN(C(=O)Nc3ccc(NC(C)=O)cc3Cl)CC2)cc1 [Example 169, 4-{4-[3-(2-methoxy-5-methyl-phenyl)-ureido]-phenyl}-piperazine-1-carboxylic acid (4-acetylamino-2-chloro-phenyl)-amide]
inhibition at 0.1 µg/mL (mouse DGAT1): ≥ 50% | melting point: 155 to 157 °C

COc1ccc(C)cc1NC(=O)Nc1ccc(N2CCN(C(=O)Nc3c(C)cccc3OC)CC2)cc1 [Example 170, 4-{4-[3-(2-methoxy-5-methyl-phenyl)-ureido]-phenyl}-piperazine-1-carboxylic acid (2-methoxy-6-methyl-phenyl)-amide]
inhibition at 0.1 µg/mL (mouse DGAT1): ≥ 50% | melting point: 200 to 203 °C

COc1ccc(C)cc1NC(=O)Nc1ccc(N2CCN(C(=O)Nc3ccc(Br)cc3C#N)CC2)cc1 [Example 171, 4-{4-[3-(2-methoxy-5-methyl-phenyl)-ureido]-phenyl}-piperazine-1-carboxylic acid (4-bromo-2-cyano-phenyl)-amide]
inhibition at 0.1 µg/mL (mouse DGAT1): ≥ 50% | melting point: 149 to 151 °C
